# What was measured:
# [1] = tested on: LLC cell subcutaneous xenograft tumors; test: Subcutaneous LLC xenograft tumor model in mice (tumor growth, volume, weight); format: in vivo, mouse (C57BL/6J)
# Procedure: FIG. 1 panel A: Experimental pattern diagram. Mice were first subcutaneously injected with LLC cells (2*10^5 cells per mouse) to establish xenograft tumors. After 14 days of tumor formation, mice received SeMet treatment for two weeks, with intraperitoneal injection of SeMet at a dose of 2 mg/kg, 5 times per week; FIG. 1 panel B: Tumor growth statistical curve in mice; FIG. 1 panel C: Representative photographic results of mouse tumors.
# FIG. 5 illustrates the therapeutic effects of SeMet and PD-1 antibody on LLC cell subcutaneous xenograft tumors in mice. FIG. 5 panel A: Experimental pattern diagram. Mice were first subcutaneously injected with LLC cells (2*10^5 cells per mouse) to establish xenograft tumors. After 14 days of tumor formation, mice were treated with SeMet and PD-1 antibody alone or in combination by intraperitoneal injection for two weeks. The dosage of SeMet was 2 mg/kg, 5 times per week; the dosage of PD-1 antibody was 200 μg per mouse, 2 times per week; FIG. 5 panel B: Tumor growth statistical curve in mice; FIG. 5 panel C: Ratio of tumor to body weight in mice; FIG. 5 panel D: Representative photographic results of mouse tumors.
# All animal experiments were approved by the Animal Ethics Committee of the Institute of Nutrition Sciences, Shanghai Institutes for Biological Sciences, Chinese Academy of Sciences, and were conducted in accordance with the protocols approved by the Animal Care and Use Committee of Shanghai Institutes for Biological Sciences. Six-week-old C57BL/6J mice were purchased from Shanghai Slake Experimental Animal Co., Ltd. and were housed in an SPF-grade animal facility. […] The tumor size was measured every two days, and the tumor volume (mm^3) was calculated using the following formula: ½×a×b^2, wherein a was the long diameter and b was the short diameter of the tumor. After the mice were euthanized, the tumors were excised, weighed, and the average weight of tumors in each group was calculated. The excised tumors were fixed with paraformaldehyde for subsequent immunohistochemical or immunofluorescence analysis.
# C57BL/6J mice were subcutaneously injected with LLC cells (2*10^5 cells per mouse) to establish xenograft tumors. After 14 days of tumor formation, mice received SeMet treatment for two weeks (FIG. 1 panel A).
# Subsequently, we investigated the therapeutic effects of SeMet and PD-1 antibody used alone or in combination on LLC cell subcutaneous xenograft tumors in mice. Mice were first subcutaneously injected with LLC cells (2*10^5 cells per mouse) to establish xenograft tumors. After 14 days of tumor formation, mice were treated with SeMet and PD-1 antibody alone or in combination by intraperitoneal injection for two weeks. The dosage and frequency of SeMet were the same as previously described, while the dosage of PD-1 antibody was 200 μg per mouse, 2 times per week (FIG. 5 panel A).
# An L-selenomethionine was used to construct an N-acetyl-selenomethionine (N-Ac-SeMet) to improve its stability. To verify the therapeutic effect of the N-acetyl-selenomethionine on lung cancer, C57BL/6J mice were subcutaneously injected with LLC cells (2*10^5 cells per mouse) to establish xenograft tumors and divided into four groups: control group, selenomethionine (SeMet) treated group, N-acetyl-selenomethionine (N-Ac-SeMet) treated group, and anti-PD1 treated group. After 14 days of tumor formation, the mice in each group were treated for two weeks.
# [2] = tested on: Treg cells, IL-17a-secreting TH17 cells; test: Flow cytometry of Treg and TH17 cells in CT26 colon tumors; format: in vivo, mouse (BALB/C)
# Procedure: (§1) Preparation of single-cell suspension from mouse tumor cells: 200 mg of mouse tumor tissue was obtained, cut into pieces and added to 2.43 ml of tumor digestion solution, followed by digestion in a 37° C. shaking water bath for 30 minutes. Flow cytometry staining included surface antigen staining and intracellular factor (cytokines and transcription factors) staining. For the cytokine detection, broad-spectrum activation inhibitors (PMA, ionomycin, or BFA, added at a ratio of 1:1000) were first prepared with the RPMI-1640 medium. 100 μl of each reagent was added to resuspend the cells, and the cells were then transferred to a 96-well plate and treated in a 37° C. cell incubator for 4-6 h. Subsequently, 200 μl of FACS buffer was added, and the cells were pipetted to mix evenly before transferred to a 1.5 ml eppendorf tube. The tube was centrifuged at 350 g for 5 minutes, and the supernatant was carefully aspirated. Cells were resuspended in 100 μl of PBS. For the surface antigen staining, the above steps were omitted. The cell suspension was placed on ice, and live/dead dye (at a ratio of 1:1000) was added. Staining was performed on ice in darkness for 30 minutes. Cells were washed with 1 ml of PBS, centrifuged at 350 g for 5 minutes, and the supernatant was carefully removed. […]
# [3] = tested on: Treg cells, IL-17a-secreting TH17 cells; test: Flow cytometry of Treg and TH17 cells in B16 xenograft tumors; format: in vivo, mouse (C57BL/6J)
# Procedure: as §1
# B16 melanoma cells = test: Subcutaneous B16 melanoma xenograft tumor model in mice; format: in vivo, mouse (C57BL/6J); conditions: C57BL/6J mice, B16 2*10^5 cells s.c.; treated two weeks from day 14; FIG. 10
# Procedure: To verify the therapeutic effect of selenomethionine (SeMet) on melanoma, C57BL/6J mice were subcutaneously injected with B16 melanoma cells (2*10^5 cells per mouse) to establish xenograft tumors. After 14 days of tumor formation, the mice were treated with SeMet for two weeks (FIG. 10 panel A).
# CD4 and Foxp3 = test: qPCR of CD4 and Foxp3 expression in LLC xenograft tumors; format: in vivo, mouse (C57BL/6J); conditions: vs control group, FIG. 7A
# Procedure: After the cells were cultured or treated, the medium was discarded, and the cells were washed once with ice-cold PBS. Then, 1 mL of Trizol reagent was added, and the cells were completely blown down. If it was for the tissue, 10-20 mg of tissue was homogenized into a homogenate using a grinder, with the addition of steel beads and 1 mL of Trizol. 200 μL of chloroform was added into the cell or tissue homogenate in 1 mL of Trizol, mixed vigorously, and placed on ice for 5 minutes. The mixture was centrifuged at 12,000 rpm for 10 minutes at 4° C. Then, 400 μL of the supernatant was carefully aspirated and added to an equal volume of isopropanol, vigorously mixed, and placed on ice for 15 minutes and centrifuged again at 12,000 rpm for 10 minutes at 4° C. Afterwards, a white RNA precipitate was visible at the bottom. The supernatant was carefully discarded, and 1 ml of 75% ethanol (diluted with DEPC-treated water) was added. […] A certain volume of DEPC-treated water was added to dissolve the RNA, and the concentration was measured. […] The genomic DNA removal reaction system was as follows: According to the gene primers to be detected, the above-mentioned Mix without the cDNA template was prepared, mixed thoroughly, and kept on ice until use. […] The detection program was as follows: After detection, the relative gene expression levels were calculated using the 2^−┐┐T method.
# colon cancer CT26 cells = test: Orthotopic CT26 colon cancer model in mice; format: in vivo, mouse (BALB/C); conditions: BALB/C mice, CT26 tumor pieces implanted orthotopically at cecal end; treatment from second day; effects similar to anti-PD1; FIG. 12 A-B
# Text: To verify the therapeutic effect of selenomethionine (SeMet) on colon cancer, BALB/C mice were subcutaneously inoculated with colon cancer CT26 cells. After subcutaneous xenograft tumors grew to a certain size, the tumors were cut into 1 mm*1 mm*1 mm pieces that were then orthotopically implanted at the cecal end of the mice. SeMet intervention was initiated on the second day after orthotopic tumor formation.
# selenoproteins = test: qPCR / Western blot of selenoprotein expression in LLC xenograft tumors; format: in vivo, mouse (C57BL/6J)
# PD-L1 = test: qPCR, WB and immunofluorescence of PD-L1 expression in LLC xenograft tumors; format: in vivo, mouse (C57BL/6J); conditions: immunofluorescence, FIG. 4
# [4] = tested on: CD45+ immune cells, CD25+Foxp3+ Treg cells, IL-17a+ TH17 cells; test: Flow cytometry of immune cells in LLC xenograft tumors; format: in vivo, mouse (C57BL/6J)
# Procedure: Preparation of single-cell suspension from mouse tumor cells: 200 mg of mouse tumor tissue was obtained, cut into pieces and added to 2.43 ml of tumor digestion solution, followed by digestion in a 37° C. shaking water bath for 30 minutes. Flow cytometry staining included surface antigen staining and intracellular factor (cytokines and transcription factors) staining. For the cytokine detection, broad-spectrum activation inhibitors (PMA, ionomycin, or BFA, added at a ratio of 1:1000) were first prepared with the RPMI-1640 medium. 100 μl of each reagent was added to resuspend the cells, and the cells were then transferred to a 96-well plate and treated in a 37° C. cell incubator for 4-6 h. Subsequently, 200 μl of FACS buffer was added, and the cells were pipetted to mix evenly before transferred to a 1.5 ml eppendorf tube. The tube was centrifuged at 350 g for 5 minutes, and the supernatant was carefully aspirated. Cells were resuspended in 100 μl of PBS. For the surface antigen staining, the above steps were omitted. The cell suspension was placed on ice, and live/dead dye (at a ratio of 1:1000) was added. Staining was performed on ice in darkness for 30 minutes. Cells were washed with 1 ml of PBS, centrifuged at 350 g for 5 minutes, and the supernatant was carefully removed. The cell precipitate was resuspended in the FACS buffer, and the blocking antibody CD16/CD32 was added at a ratio of 1:200. The mixture was placed on ice in darkness for 30 minutes. Subsequently, surface antibodies were added at a ratio of 1:200: CD45, CD3, CD4, and CD25 antibodies were sequentially added for Treg cell surface staining; CD45, CD3, and CD4 antibodies were sequentially added for Th17 cell staining. Incubation was performed on ice in darkness for 30 minutes. Cells were washed with 1 ml of the FACS buffer, then centrifuged at 350 g for 5 minutes, and the supernatant was carefully removed. For intracellular factor staining, 250 μl of the fixation/permeabilization solution was added, and the cells were incubated on ice in darkness for 2 h. Then, 1 ml of the fixation/permeabilization wash buffer was added, the cells were centrifuged at 500 g for 5 minutes, and the supernatant was carefully removed. Cells were resuspended in the fixation/permeabilization wash buffer, and intracellular antibodies Foxp3 and IL-17A were added at a ratio of 1:200. The cells were incubated on ice in darkness for 30 minutes. After washing with 1 ml of the FACS buffer and centrifugation at 500 g for 5 minutes, the supernatant was carefully removed. Cells were resuspended in 200 μl of the FACS buffer and prepared for flow cytometry analysis.
# [5] = Selenium content in subcutaneous xenograft tumors; format: in vivo, mouse; conditions: mice, after SeMet treatment
# [6] = NSCLC subcutaneous xenograft tumor model, vs control group, summary statement
# [7] = NSCLC subcutaneous xenograft tumor model, summary statement
smiles,measurement,setting,value
"C[Se]CC[C@H](N)C(=O)O [SeMet, L-selenomethionine]",growth of subcutaneous LLC tumors (tumor growth curves),"[1]; C57BL/6J mice, LLC 2*10^5 cells s.c., after 14 days SeMet 2 mg/kg i.p. 5 times per week for two weeks, FIG. 1",effectively inhibit the growth of subcutaneous LLC tumors
same,tumor growth,"[1]; LLC s.c. tumors, i.p. two weeks from day 14, SeMet 2 mg/kg 5 times per week, PD-1 antibody 200 μg per mouse 2 times per week, alone or combined, vs control, FIG. 5B",significantly reduced
same,tumor mass,[1]; [6],significantly reduced
same,tumor volume,[1]; [6],significantly reduced
same,tumor growth,[1]; [7],significantly inhibit tumor growth
same,tumor volume and mass compared with the PD-1 group,[1]; [7],no significant difference
same,ratio of tumor to body weight,"[1]; same study as FIG. 5B, FIG. 5C",validated this result
same,visual inspection of excised subcutaneous mouse tumors,"[1]; same study, FIG. 5D",significantly reduced
same,proportion of Treg cells,"[2]; FIG. 12 C, E",significantly reduced
same,proportion of IL-17a-secreting TH17 cells,"[2]; FIG. 12 D, F",increased
same,proportion of Treg cells,"[3]; FIG. 11 A, C",significantly reduced
same,proportion of IL-17a-secreting TH17 cells,"[3]; FIG. 11 B, D",significantly increased
same,growth of subcutaneous B16 tumors,B16 melanoma cells,"effectively inhibited the growth of subcutaneous B16 tumors, with effects similar to anti-PD1 treatment"
same,expression levels of CD4 and Foxp3 (mRNA),CD4 and Foxp3,reduced
same,colon cancer growth,colon cancer CT26 cells,effectively inhibited
same,expression of SOD1 and GPX1 at the protein level,"selenoproteins; LLC xenograft tumors, vs control group, WB, FIG. 3 M-N",significant increase
same,"expression of selenoproteins SOD1, SOD2, GPX1, GPX2, GPX4, Sephs2, Sepx1, SelS, SelP, Txnrd1, Txnrd2, Txnrd3 at the mRNA level","selenoproteins; LLC xenograft tumors, vs control group, qPCR, FIG. 3 A-L",significant increase
same,"expression of selenoproteins GPX1, GPX2, SOD1, SOD2, Sephs2, Sepx1, SelS, Txnrd1, Txnrd2, SelF, Selk, SelW, MT2 at the mRNA level","selenoproteins; LLC xenograft tumors, vs control group, qPCR, FIG. 6",increased
same,"levels of major selenoproteins, including GPX1, GPX4","selenoproteins; NSCLC tissues after treatment, summary statement",significantly increased
same,expression of PD-L1,PD-L1,increased
same,number of CD45+ immune cells,"[4]; LLC tumors digested into single cells, flow cytometry, FIG. 7 B-C",significantly increased
same,proportion of CD25+Foxp3+ Treg cells,"[4]; LLC tumors, flow cytometry, FIG. 7 D-E",significantly reduced
same,proportion of IL-17a-secreting TH17 cells,"[4]; LLC tumors, flow cytometry, FIG. 7 F-G",significantly increased
same,number of Treg cells infiltrating the tumor,"[4]; NSCLC tissues, flow sorting, summary statement",significantly reduced
same,selenium content in subcutaneous xenograft tumors,[5],significantly increased
"C[Se]CC[C@H](NC(C)=O)C(=O)O [N-Ac-SeMet, N-acetyl-selenomethionine]",average tumor weight,"[1]; LLC s.c. tumors, end of treatment, vs control, p<0.05, FIG. 8C",significantly lower than those in the control group
same,tumor weight-to-body weight ratio,"[1]; LLC s.c. tumors, end of treatment, vs control, p<0.05, FIG. 8D",significantly lower than those in the control group
same,tumor volume,"[1]; LLC s.c. tumors, treated two weeks from day 14, Day 15, vs control, p<0.05, FIG. 8 A-B",significantly smaller than that in the control group
same,proportion of Treg (CD25+Foxp3+) cells in tumors,"[4]; LLC tumors, flow cytometry, FIG. 9 A-B",significantly reduced
same,proportion of Th17 (IL-17a+) cells in tumors,"[4]; LLC tumors, flow cytometry, FIG. 9 C-D",significantly increased

# Source: patent publication US20250332132A1, “SELENIUM-CONTAINING SUBSTANCE FOR TREATMENT OF CANCER” (SHANGHAI INSTITUTE OF NUTRITION AND HEALTH, CHINESE ACADEMY …, priority 2022, published 2025)
